Test results as given in paper PMC6277767, “Broad and Region-Specific Impacts of the Synthetic Cannabinoid CP 55,940 in Adolescent and Adult Female Mouse Brains” (Frontiers in Molecular Neuroscience, 2018).
Where two headings read alike, the source gives them in different places.

Legend:
[1] = tested on: CD1 female mice; assay: Visual observation of mice given CP; assay type: in vivo, mouse; conditions: PND 35, PND 50 and adult mice; 3 mg/kg i.p.
Description: The Bloomington Institutional Animal Care and Use Committee of Indiana University reviewed and approved the animal procedures. Female mice from the CD1 strain were utilized to match our study examining THC’s effects on the brain lipidome ([Leishman et al., 2018]). Mice were given a single i.p. injection of either 3 mg/kg CP or 1:1:18 cremophor:ethanol:saline vehicle (please refer to the section “3 mg/kg CP Is Relevant for Synthetic Cannabinoid Abuse and Has Stronger Effects on the Female Mouse Brain Lipidome During Adolescence” for a justification of dose and use of female mice). Three different age groups were given injections: PND 35 and PND 50 adolescents, and adult mice (PND 113). At least eight mice in each age group received CP and at least eight received vehicle. Matching the THC study time course ([Leishman et al., 2018]), mice were sacrificed via rapid decapitation 2 h after injection. Brains were immediately removed and flash-frozen in liquid nitrogen, and then stored at -80°C until dissections were performed. Brains were dissected on an ice-cold dissection plate into the following regions: STR, HIPP, CER, THAL, CTX, HYP, MID, and STEM. These abbreviations for these brain areas will be used exclusively when discussing the results generated by these specific dissections. […]

[2] = tested on: CB1; design: method as in Felder et al., 1995; conditions: ref Felder et al., 1995; read-out: IC50, inhibition of adenylate cyclase at CB1; cited from earlier work
[3] = tested on: CB2; design: method as in Felder et al., 1995; conditions: ref Felder et al., 1995; read-out: IC50, inhibition of adenylate cyclase at CB2; cited from earlier work
[4] = tested on: mice; conditions: cited from earlier work; for catalepsy: single 0.3 mg/kg injection, ref Kow et al., 2014
[5] = tested on: rats; design: method as in McGregor et al., 1996; conditions: acute injection of 0.1 mg/kg, ref McGregor et al., 1996; cited from earlier work
[6] = tested on: rats; design: method as in Higuera-Matas et al., 2010; conditions: ref Higuera-Matas et al., 2010, cited from earlier work

CCCCCCC(C)(C)c1ccc([C@@H]2C[C@H](O)CC[C@H]2CCCO)c(O)c1 [CP 55,940]
locomotor activity (visual observation) [1]: profoundly reduced locomotor activity
mortality [1]: no mortality
catalepsy ([4]; C57 mice): produced catalepsy
catalepsy ([4]; CB1 KO mice): not
ED50 for catalepsy ([4]; ref Little et al., 1988, Compton et al., 1992): 0.4 mg/kg
DAT in the caudate-putamen ([6]; rats, CP during adolescence): upregulated
dopamine D2 receptor levels in the HIPP ([6]; rats, CP during adolescence): decreased
